From patent US20240018466A1, “METHOD FOR INDUCING SALMONELLA ENTERITIDIS INTO VBNC STATE BY SODIUM HYPOCHLORITE” (Zhejiang Academy of Agricultural Sciences, priority 2022, published 2024) come the findings set out here.

Assay [1] has as its system S. Enteritidis CVCC 1806. In words: Counts of culturable cells by plate counting method after NaClO stress treatment. The format is cell-based, Salmonella enteritidis. The note with it: after 2.5 h of treatment with 50 mg/L NaClO solution, room temperature; FIG. 1.
Assay [2] concerns S. Enteritidis CVCC 1806. Briefly: Counts of live cells by Live and Dead BacLight SYTO9/PI staining and flow cytometry after NaClO stress treatment. The format is cell-based, Salmonella enteritidis. As to the method: the NaClO stock solution of NaClO disinfectant solution containing 56.8 mg/mL chlorine was diluted to 100 mg/L with sterilized sterile water for later use, and 0.5 ml of bacterial suspension (10^9 CFU/mL) and 100 mg/L NaClO solution were taken respectively into a sterile EP tube. The products in the sterile EP tube were vortex-mixed, and the stress concentration in the final system was 50 mg/L.
The mixed reagent was placed at room temperature, and systems were obtained for processing every 0.5 h within a stress treatment for up to 3 h, and 100 μL 1.5% Na2S2O3 was added to terminate the reaction.
Counts of live cells: the concentration of bacterial suspension was adjusted to 10^7-10^9 CFU/mL, and live, dead and injured bacteria were distinguished using commercial Live and Dead BacLight test kits (Molecular Probes, Carlsbad, CA, USA). […]
On the technique in general: Flow cytometry measures light scatter and fluorescence of single cells or particles in a stream.

Take `OCl` [NaClO, sodium hypochlorite]: in the assay on S. Enteritidis CVCC 1806 [1], the “number of culturable cells” value stood at 0 CFU/ml. Also, in the assay on S. Enteritidis CVCC 1806 [2] (after 2.5 h of treatment with 50 mg/L NaClO solution, flow cytometry), the “total content of live cells and bacteria in the sub-lethal injury state in the system” value was 60.03%. Further, the “induction of VBNC state” value in the assay on S. Enteritidis CVCC 1806 [2] (after 2.5 h of treatment with 50 mg/L NaClO, live minus culturable cells at maximum) was “enter the VBNC state”.
